Measured values from the NIST ThermoML archive (doi:10.1016/j.jct.2016.09.030).
Numbers after ± are expanded uncertainties. One block for each compound: values may come before it.

Columns and labels:
[1] = xn = mol fraction of the nth substance listed; conditions: 100 kPa, Liquid, x2 = 0; for viscosity: Concentric cylinders viscometry; for mass density: Vibrating tube method
[2] = refractive index (Na D-line) (dimensionless); xn = mol fraction of the nth substance listed; conditions: 100 kPa, Liquid, Standard Abbe refractometry, x2 = 0
[3] = refractive index (Na D-line) (dimensionless); conditions: 100 kPa, Liquid, Standard Abbe refractometry
[4] = 100 kPa, Liquid; for viscosity: Concentric cylinders viscometry; for mass density: Vibrating tube method

SMILES: CC(C)CO [2-methyl-1-propanol] + CCCCCCCC(=O)OCC
viscosity ([1]; 288.15 K): 4.829 ± 0.039 mPa·s
mass density ([1]; 288.15 K): 805.88 ± 1.6 kg/m3
viscosity ([1]; 293.15 K): 4.052 ± 0.033 mPa·s
mass density ([1]; 293.15 K): 802.03 ± 1.6 kg/m3
viscosity ([1]; 298.15 K): 3.431 ± 0.028 mPa·s
mass density ([1]; 298.15 K): 798.16 ± 1.6 kg/m3
viscosity ([1]; 303.15 K): 2.923 ± 0.024 mPa·s
mass density ([1]; 303.15 K): 794.25 ± 1.6 kg/m3
viscosity ([1]; 308.15 K): 2.505 ± 0.021 mPa·s
mass density ([1]; 308.15 K): 790.31 ± 1.6 kg/m3
viscosity ([1]; 313.15 K): 2.161 ± 0.018 mPa·s
mass density ([1]; 313.15 K): 786.31 ± 1.6 kg/m3
viscosity ([1]; 318.15 K): 1.875 ± 0.016 mPa·s
mass density ([1]; 318.15 K): 782.26 ± 1.6 kg/m3
viscosity ([1]; 323.15 K): 1.652 ± 0.014 mPa·s
mass density ([1]; 323.15 K): 778.14 ± 1.6 kg/m3
refractive index ([2]; 288.15 K): 1.3978 ± 0.0028
refractive index ([2]; 293.15 K): 1.3958 ± 0.0028
refractive index ([2]; 298.15 K): 1.3937 ± 0.0028
refractive index ([2]; 303.15 K): 1.3916 ± 0.0028
refractive index ([2]; 308.15 K): 1.3895 ± 0.0028
refractive index ([2]; 313.15 K): 1.3874 ± 0.0028
refractive index ([2]; 318.15 K): 1.3853 ± 0.0028
refractive index ([2]; 323.15 K): 1.383 ± 0.0028

SMILES: CC(C)CO [2-methyl-1-propanol] + CCOC(=O)CCC(=O)OCC
viscosity ([1]; 288.15 K): 4.829 ± 0.039 mPa·s
mass density ([1]; 288.15 K): 805.88 ± 1.6 kg/m3
viscosity ([1]; 293.15 K): 4.052 ± 0.033 mPa·s
mass density ([1]; 293.15 K): 802.03 ± 1.6 kg/m3
viscosity ([1]; 298.15 K): 3.431 ± 0.028 mPa·s
mass density ([1]; 298.15 K): 798.16 ± 1.6 kg/m3
viscosity ([1]; 303.15 K): 2.923 ± 0.024 mPa·s
mass density ([1]; 303.15 K): 794.25 ± 1.6 kg/m3
viscosity ([1]; 308.15 K): 2.505 ± 0.021 mPa·s
mass density ([1]; 308.15 K): 790.31 ± 1.6 kg/m3
viscosity ([1]; 313.15 K): 2.161 ± 0.018 mPa·s
mass density ([1]; 313.15 K): 786.31 ± 1.6 kg/m3
viscosity ([1]; 318.15 K): 1.875 ± 0.016 mPa·s
mass density ([1]; 318.15 K): 782.26 ± 1.6 kg/m3
viscosity ([1]; 323.15 K): 1.652 ± 0.014 mPa·s
mass density ([1]; 323.15 K): 778.14 ± 1.6 kg/m3
refractive index ([2]; 288.15 K): 1.3978 ± 0.0028
refractive index ([2]; 293.15 K): 1.3958 ± 0.0028
refractive index ([2]; 298.15 K): 1.3937 ± 0.0028
refractive index ([2]; 303.15 K): 1.3916 ± 0.0028
refractive index ([2]; 308.15 K): 1.3895 ± 0.0028
refractive index ([2]; 313.15 K): 1.3874 ± 0.0028
refractive index ([2]; 318.15 K): 1.3853 ± 0.0028
refractive index ([2]; 323.15 K): 1.383 ± 0.0028

SMILES: CC(C)CCO [3-methylbutan-1-ol] + CCCCCCCC(=O)OCC
viscosity ([1]; 288.15 K): 5.057 ± 0.047 mPa·s
mass density ([1]; 288.15 K): 812.29 ± 1.6 kg/m3
viscosity ([1]; 293.15 K): 4.287 ± 0.04 mPa·s
mass density ([1]; 293.15 K): 808.58 ± 1.6 kg/m3
viscosity ([1]; 298.15 K): 3.671 ± 0.035 mPa·s
mass density ([1]; 298.15 K): 804.84 ± 1.6 kg/m3
viscosity ([1]; 303.15 K): 3.155 ± 0.03 mPa·s
mass density ([1]; 303.15 K): 801.09 ± 1.6 kg/m3
viscosity ([1]; 308.15 K): 2.73 ± 0.026 mPa·s
mass density ([1]; 308.15 K): 797.31 ± 1.6 kg/m3
viscosity ([1]; 313.15 K): 2.375 ± 0.023 mPa·s
mass density ([1]; 313.15 K): 793.51 ± 1.6 kg/m3
viscosity ([1]; 318.15 K): 2.076 ± 0.02 mPa·s
mass density ([1]; 318.15 K): 789.67 ± 1.6 kg/m3
viscosity ([1]; 323.15 K): 1.841 ± 0.018 mPa·s
mass density ([1]; 323.15 K): 785.79 ± 1.6 kg/m3
refractive index ([2]; 288.15 K): 1.4087 ± 0.0028
refractive index ([2]; 293.15 K): 1.4067 ± 0.0028
refractive index ([2]; 298.15 K): 1.4047 ± 0.0028
refractive index ([2]; 303.15 K): 1.4026 ± 0.0028
refractive index ([2]; 308.15 K): 1.4005 ± 0.0028
refractive index ([2]; 313.15 K): 1.3985 ± 0.0028
refractive index ([2]; 318.15 K): 1.3964 ± 0.0028
refractive index ([2]; 323.15 K): 1.3943 ± 0.0028

Now from value to compound:

viscosity ([1]; 288.15 K): 5.057 ± 0.047 mPa·s
mass density ([1]; 288.15 K): 812.29 ± 1.6 kg/m3
viscosity ([1]; 293.15 K): 4.287 ± 0.04 mPa·s
mass density ([1]; 293.15 K): 808.58 ± 1.6 kg/m3
viscosity ([1]; 298.15 K): 3.671 ± 0.035 mPa·s
mass density ([1]; 298.15 K): 804.84 ± 1.6 kg/m3
viscosity ([1]; 303.15 K): 3.155 ± 0.03 mPa·s
mass density ([1]; 303.15 K): 801.09 ± 1.6 kg/m3
viscosity ([1]; 308.15 K): 2.73 ± 0.026 mPa·s
mass density ([1]; 308.15 K): 797.31 ± 1.6 kg/m3
viscosity ([1]; 313.15 K): 2.375 ± 0.023 mPa·s
mass density ([1]; 313.15 K): 793.51 ± 1.6 kg/m3
viscosity ([1]; 318.15 K): 2.076 ± 0.02 mPa·s
mass density ([1]; 318.15 K): 789.67 ± 1.6 kg/m3
viscosity ([1]; 323.15 K): 1.841 ± 0.018 mPa·s
mass density ([1]; 323.15 K): 785.79 ± 1.6 kg/m3
refractive index ([2]; 288.15 K): 1.4087 ± 0.0028
refractive index ([2]; 293.15 K): 1.4067 ± 0.0028
refractive index ([2]; 298.15 K): 1.4047 ± 0.0028
refractive index ([2]; 303.15 K): 1.4026 ± 0.0028
refractive index ([2]; 308.15 K): 1.4005 ± 0.0028
refractive index ([2]; 313.15 K): 1.3985 ± 0.0028
refractive index ([2]; 318.15 K): 1.3964 ± 0.0028
refractive index ([2]; 323.15 K): 1.3943 ± 0.0028
SMILES: CC(C)CCO [3-methylbutan-1-ol] + CCOC(=O)CCC(=O)OCC

refractive index ([3]; 288.15 K): 1.4199 ± 0.0028
refractive index ([3]; 293.15 K): 1.4177 ± 0.0028
refractive index ([3]; 298.15 K): 1.4155 ± 0.0028
refractive index ([3]; 303.15 K): 1.4132 ± 0.0028
refractive index ([3]; 308.15 K): 1.411 ± 0.0028
refractive index ([3]; 313.15 K): 1.4088 ± 0.0028
refractive index ([3]; 318.15 K): 1.4066 ± 0.0028
refractive index ([3]; 323.15 K): 1.4044 ± 0.0028
viscosity ([4]; 288.15 K): 1.686 ± 0.022 mPa·s
mass density ([4]; 288.15 K): 870.88 ± 1.7 kg/m3
viscosity ([4]; 293.15 K): 1.537 ± 0.02 mPa·s
mass density ([4]; 293.15 K): 866.58 ± 1.7 kg/m3
viscosity ([4]; 298.15 K): 1.41 ± 0.019 mPa·s
mass density ([4]; 298.15 K): 862.28 ± 1.7 kg/m3
viscosity ([4]; 303.15 K): 1.298 ± 0.017 mPa·s
mass density ([4]; 303.15 K): 857.98 ± 1.7 kg/m3
viscosity ([4]; 308.15 K): 1.2 ± 0.016 mPa·s
mass density ([4]; 308.15 K): 853.68 ± 1.7 kg/m3
viscosity ([4]; 313.15 K): 1.118 ± 0.015 mPa·s
mass density ([4]; 313.15 K): 849.37 ± 1.7 kg/m3
viscosity ([4]; 318.15 K): 1.035 ± 0.014 mPa·s
mass density ([4]; 318.15 K): 845.06 ± 1.7 kg/m3
viscosity ([4]; 323.15 K): 0.9708 ± 0.013 mPa·s
mass density ([4]; 323.15 K): 840.74 ± 1.7 kg/m3
SMILES: CCCCCCCC(=O)OCC [ethyl octanoate]
